Ki and melting point data for seven molecules are collected here from patent US6653300B2, “Pyrazole compounds useful as protein kinase inhibitors” (Vertex Pharmaceuticals Incorporated, priority 2000, dated 2003).

As a reminder, the pKi is the Ki on a negative log10 scale, so that one unit is a factor of ten. Broadly, the melting point is the temperature, or range, at which the solid turns liquid.

One data set deals with T1, GSK-3β (AA 1-420) (Homo sapiens, UniProt P49841).
T1 construct: GSK-3β (AA 1-420)
T1 sequence (P49841 whole entry, the tested form may be a part): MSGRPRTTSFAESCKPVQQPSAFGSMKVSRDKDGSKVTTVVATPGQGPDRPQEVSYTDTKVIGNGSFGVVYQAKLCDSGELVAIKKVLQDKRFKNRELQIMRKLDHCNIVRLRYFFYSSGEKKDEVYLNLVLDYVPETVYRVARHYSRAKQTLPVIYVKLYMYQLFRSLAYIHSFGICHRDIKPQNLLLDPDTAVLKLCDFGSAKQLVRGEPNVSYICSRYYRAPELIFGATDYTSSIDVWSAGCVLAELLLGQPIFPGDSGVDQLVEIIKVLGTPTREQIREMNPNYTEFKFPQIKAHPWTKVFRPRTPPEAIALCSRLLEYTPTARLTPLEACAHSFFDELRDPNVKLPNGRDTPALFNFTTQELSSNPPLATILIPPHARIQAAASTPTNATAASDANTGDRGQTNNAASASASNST
Put plainly: Ki determination for the inhibition of GSK-3 (coupled enzyme system). The data set is classed as biochemical. The conditions noted are these: 20 μM ATP, 20 nM GSK-3β, 30° C. In outline:
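GSK-3β (AA 1-420, 20 nM) was run in a pyruvate kinase/LDH-coupled NADH assay in 100 mM HEPES pH 7.5, 10 mM MgCl2, 25 mM NaCl, 1 mM DTT, 1.5% DMSO, with 300 μM phosphopeptide substrate. Compound (0.002–30 μM) was preincubated 10 min at 30° C, then 20 μM ATP was added.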

Another data set has as its target AKT-3 (Homo sapiens, UniProt Q9Y243). Put plainly: AKT inhibition assay (coupled enzyme assay). Format: biochemical. The conditions noted are these: 45 nM AKT, 170 μM ATP, 30° C. The procedure: Compounds were screened for their ability to inhibit AKT using a standard coupled enzyme assay (Fox et al., Protein Sci., (1998) 7, 2249). Assays were carried out in a mixture of 100 mM HEPES 7.5, 10 mM MgCl2, 25 mM NaCl, 1 mM DTT and 1.5% DMSO. Final substrate concentrations in the assay were 170 μM ATP (Sigma Chemicals) and 200 μM peptide (RPRAATF, American Peptide, Sunnyvale, Calif.). Assays were carried out at 30° C. and 45 nM AKT. Final concentrations of the components of the coupled enzyme system were 2.5 mM phosphoenolpyruvate, 300 μM NADH, 30 μg/ML pyruvate kinase and 10 μg/ml lactate dehydrogenase.
An assay stock buffer solution was prepared containing all of the reagents listed above, with the exception of AKT, DTT, and the test compound of interest. 56 μl of the stock solution was placed in a 384 well plate followed by addition of 1 μl of 2 mM DMSO stock containing the test compound (final compound concentration 30 μM). The plate was preincubated for about 10 minutes at 30° C. and the reaction initiated by addition of 10 μl of enzyme (final concentration 45 nM) and 1 mM DTT. Rates of reaction were obtained using a BioRad Ultramark plate reader (Hercules, Calif.) over a 5 minute read time at 30° C.

For a further data set, the target named is activated ERK2 (Homo sapiens, UniProt P28482). Put plainly: ERK inhibition assay (spectrophotometric coupled-enzyme assay). The conditions noted are these: 10 nM activated ERK2, 65 μM ATP, 30° C.; read-out: Ki values for ERK-2. Format: biochemical. The procedure: Compounds were assayed for the inhibition of ERK2 by a spectrophotometric coupled-enzyme assay (Fox et al (1998) Protein Sci 7, 2249).
Sequence of activated ERK2 (P28482 whole entry): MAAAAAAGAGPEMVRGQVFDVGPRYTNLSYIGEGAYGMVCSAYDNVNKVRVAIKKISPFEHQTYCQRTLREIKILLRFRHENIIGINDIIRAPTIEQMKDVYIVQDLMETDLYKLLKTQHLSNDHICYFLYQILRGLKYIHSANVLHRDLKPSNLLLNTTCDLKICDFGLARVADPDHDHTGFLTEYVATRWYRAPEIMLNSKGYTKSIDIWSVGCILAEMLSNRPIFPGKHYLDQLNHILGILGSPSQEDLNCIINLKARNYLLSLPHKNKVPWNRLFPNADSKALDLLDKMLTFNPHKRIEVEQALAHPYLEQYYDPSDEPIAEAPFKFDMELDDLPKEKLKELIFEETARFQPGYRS

A further data set concerns the target CDK-2/Cyclin A (Homo sapiens, UniProt P24941). Put plainly: CDK-2 inhibition assay (coupled enzyme assay). The conditions noted are these: 25 nM CDK-2/Cyclin A, 30° C. Format: biochemical. The procedure:
Compounds were screened in the following manner for their ability to inhibit CDK-2 using a standard coupled enzyme assay (Fox et al (1998) Protein Sci 7, 2249).
To an assay stock buffer solution containing 0.1M HEPES 7.5, 10 mM MgCl2, 1 mM DTT, 25 mM NaCl, 2.5 mM phosphoenolpyruvate, […], 30 mg/ml pyruvate kinase, 10 mg/ml lactate dehydrogenase, 100 mM ATP, and 100 μM peptide ([…], American Peptide, Sunnyvale, Calif.) was added a DMSO solution of a compound of the present invention to a final concentration of 30 μM. The resulting mixture was incubated at 30° C. for 10 min.
The reaction was initiated by the addition of 10 μL of CDK-2/Cyclin A stock solution to give a final concentration of 25 nM in the assay. The rates of reaction were obtained by monitoring absorbance at 340 nm over a 5-minute read time at 30° C. using a BioRad Ultramark plate reader (Hercules, Calif.). The Ki values were determined from the rate data as a function of inhibitor concentration.

The target of a further data set is T2, Aurora-2 (Homo sapiens, UniProt O14965).
T2 sequence (O14965 1-403): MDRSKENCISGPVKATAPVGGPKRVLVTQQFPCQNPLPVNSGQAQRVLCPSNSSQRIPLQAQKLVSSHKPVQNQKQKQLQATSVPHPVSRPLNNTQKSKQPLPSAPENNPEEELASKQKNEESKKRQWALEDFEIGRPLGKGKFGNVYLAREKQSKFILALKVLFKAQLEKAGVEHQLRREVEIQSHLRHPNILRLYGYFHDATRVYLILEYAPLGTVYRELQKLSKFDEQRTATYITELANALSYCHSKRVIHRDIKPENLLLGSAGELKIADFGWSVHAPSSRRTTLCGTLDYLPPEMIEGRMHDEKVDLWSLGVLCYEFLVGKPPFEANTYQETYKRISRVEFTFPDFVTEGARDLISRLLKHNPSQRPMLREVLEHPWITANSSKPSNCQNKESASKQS
Put plainly: Ki determination for the inhibition of Aurora-2 (coupled enzyme assay). The data set is classed as biochemical. The conditions noted are these: 70 nM Aurora-2, 30° C. In outline:
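Ki came from reaction rates plotted against inhibitor concentration, with rates taken as A340 decrease over 5 min at 30° C. Enzyme (70 nM final) was added after 10 min compound preincubation; stock buffer held […], 800 μM LRRASLG, PK/LDH coupling, pH 7.5.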

In the next data set the target is T3, human Src kinase (Homo sapiens, UniProt P12931).
T3 construct: full length recombinant human Src kinase (from Upstate Biotechnology, cat. no. 14-117); purchased Upstate Biotechnology 14-117; host or cells: baculo viral cells
T3 sequence (P12931 whole entry): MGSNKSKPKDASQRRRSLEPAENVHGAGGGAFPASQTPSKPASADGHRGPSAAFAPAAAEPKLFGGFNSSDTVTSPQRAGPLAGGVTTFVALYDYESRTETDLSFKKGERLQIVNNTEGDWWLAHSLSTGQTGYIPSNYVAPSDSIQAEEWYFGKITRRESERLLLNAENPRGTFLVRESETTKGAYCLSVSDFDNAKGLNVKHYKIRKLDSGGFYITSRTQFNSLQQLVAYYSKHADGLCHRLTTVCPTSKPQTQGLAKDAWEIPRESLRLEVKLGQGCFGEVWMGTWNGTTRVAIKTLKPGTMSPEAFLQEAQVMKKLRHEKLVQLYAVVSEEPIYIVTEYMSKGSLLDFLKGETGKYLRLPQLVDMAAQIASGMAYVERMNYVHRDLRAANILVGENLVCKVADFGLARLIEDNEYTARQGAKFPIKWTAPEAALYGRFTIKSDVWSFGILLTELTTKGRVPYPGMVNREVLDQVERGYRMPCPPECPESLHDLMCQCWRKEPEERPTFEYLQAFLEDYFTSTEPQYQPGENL
Put plainly: SRC inhibition assay (radioactivity-based or spectrophotometric assay). Particulars: recombinant human Src kinase; assay A or B; read-out: Ki value on SRC. The data set is classed as biochemical. In a few lines: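 Full-length recombinant human Src from baculovirus was used. In the radiometric format, enzyme was preincubated 10 min at 30 °C, the reaction was started with ^33P-ATP and run 20 min, then TCA-quenched and filter-counted. The alternative format monitored poly Glu-Tyr phosphorylation by NADH-coupled A340 rate. Ki came from competitive-inhibition fits.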

pKi: −log10 of the molar value. Bounds are passed on as bounds.

Sequence of AKT-3 (Q9Y243 whole entry, species assumed): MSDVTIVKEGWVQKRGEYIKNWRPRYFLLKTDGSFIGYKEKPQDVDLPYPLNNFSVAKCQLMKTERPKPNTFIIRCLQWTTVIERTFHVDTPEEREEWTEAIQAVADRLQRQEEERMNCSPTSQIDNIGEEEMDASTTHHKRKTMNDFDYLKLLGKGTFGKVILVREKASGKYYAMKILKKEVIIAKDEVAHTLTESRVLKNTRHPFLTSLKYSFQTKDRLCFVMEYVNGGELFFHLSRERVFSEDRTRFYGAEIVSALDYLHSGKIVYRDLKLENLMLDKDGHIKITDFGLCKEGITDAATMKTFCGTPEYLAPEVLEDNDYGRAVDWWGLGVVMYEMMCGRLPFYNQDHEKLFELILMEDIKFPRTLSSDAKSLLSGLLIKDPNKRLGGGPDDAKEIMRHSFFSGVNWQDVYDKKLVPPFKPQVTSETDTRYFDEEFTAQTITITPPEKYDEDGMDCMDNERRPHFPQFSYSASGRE

Turning to `Cc1cc(Nc2nc(Nc3ccc4ncsc4c3)nc3ccccc23)n[nH]1` [IIc-53, [2-(Benzothiazol-6-ylamino)-quinazolin-4-yl]-(5-methyl-2H-pyrazol-3-yl)-amine], the melting point was in the range of 236 to 239 °C. This molecule also gave a pKi at GSK-3β (AA 1-420) of more than 7.00. For the same molecule, the pKi on AKT-3 was 4.70 to 6.00. Moreover, on activated ERK2, the pKi is more than 6.00. On CDK-2/Cyclin A, the negative-log Ki (pKi) is more than 6.00. In addition, the pKi at Aurora-2 was more than 7.00.

In the case of `CC(=O)Nc1ccc(Sc2nc(Nc3cc(C4CC4)[nH]n3)c3ccccc3n2)cc1` [IIa-36, [2-(4-Acetamido-phenylsulfanyl)-quinazolin-4-yl]-(5-cyclopropyl-2H-pyrazol-3-yl)-amine], the pKi on activated ERK2 is 4.70 to 6.00; at CDK-2/Cyclin A, more than 6.00.

For the molecule `c1ccc(Nc2nc(Nc3cc(C4CC4)[nH]n3)c3ccccc3n2)cc1` [IIc-18, (5-Cyclopropyl-2H-pyrazol-3-yl)-(2-phenylamino-quinazolin-4-yl)-amine], the melting point was 234 °C. Also, on GSK-3β (AA 1-420), the pKi was more than 7.00. This molecule gave a pKi at AKT-3 of 4.70 to 6.00. Besides, the pKi at activated ERK2 was 4.70 to 6.00. At human Src kinase, the negative-log Ki (pKi) was more than 7.00. The molecule also had a pKi on Aurora-2 of more than 7.00.

For `Cc1cc(Nc2nc(Nc3ccc(CC#N)cc3)nc3ccccc23)n[nH]1` [IIc-15, [2-(4-Cyanomethylphenylamino)-quinazolin-4-yl]-(5-methyl-2H-pyrazol-3-yl)-amine], the melting point is more than 250 °C. Further, at GSK-3β (AA 1-420), the negative-log Ki (pKi) was more than 7.00. For the same molecule, the pKi on activated ERK2 was more than 6.00. Also, the pKi at human Src kinase was more than 7.00. At CDK-2/Cyclin A, the pKi is more than 6.00. Besides, the pKi at Aurora-2 was more than 7.00.

`N#CCc1ccc(Nc2nc(Nc3cc(C4CC4)[nH]n3)cc(-c3ccccc3)n2)cc1` [IIIc-4, [2-(4-cyanomethylphenylamino)-6-phenyl-pyrimidin-4-yl]-(5-cyclopropyl-2H-pyrazol-3-yl)-amine] registered a melting point of 294 to 297 °C. Moreover, at activated ERK2, the pKi was more than 6.00. At CDK-2/Cyclin A, this molecule had a pKi of more than 6.00.

Regarding `OCCc1ccc(Nc2nc(Nc3cc(C4CC4)[nH]n3)c3ccccc3n2)cc1` [IIc-27, (5-Cyclopropyl-2H-pyrazol-3-yl)-{2-[4-(2-hydroxyethyl)phenylamino]-quinazolin-4-yl}-amine], the melting point is 255 to 256 °C. This molecule also had a pKi at GSK-3β (AA 1-420) of more than 7.00. Also, on AKT-3, the negative logarithm of the Ki (pKi) was 4.70 to 6.00. Also, the pKi on activated ERK2 was more than 6.00. This molecule had a negative-log Ki (pKi) on CDK-2/Cyclin A of more than 6.00. The negative logarithm of the Ki (pKi) at Aurora-2 is more than 7.00.

On to `CCc1ccc(Nc2nc(Nc3cc(C4CC4)[nH]n3)c3ccccc3n2)cc1` [IIc-25, (5-Cyclopropyl-2H-pyrazol-3-yl)-[2-(4-ethylphenylamino)-quinazolin-4-yl]-amine], for which the melting point was in the range of 250 to 251 °C. Further, at GSK-3β (AA 1-420), the negative logarithm of the Ki (pKi) was more than 7.00. On AKT-3, this molecule gave a negative-log Ki (pKi) of 4.70 to 6.00. Also, the negative logarithm of the Ki (pKi) at activated ERK2 was 4.70 to 6.00. The same molecule showed a pKi at CDK-2/Cyclin A of more than 6.00. In addition, the pKi on Aurora-2 is more than 7.00.
